Experimental data reported in patent publication US20220362273A1 (priority 2021, published 2022).

Legend:
Conditions in all cases: mouse, in vivo
[1] = system: iNOS; parameters: species or system mice
[2] = system: mice challenged with topical nitrogen mustard (NM)
[3] = system: NM-challenged skin; parameters: species or system mice
[4] = system: skin exposed to nitrogen mustard (NM); parameters: species or system C57Bl/6 mice

C=C1CC[C@H](O)C/C1=C/C=C1\CCC[C@]2(C)[C@@H]([C@H](C)CCCC(C)(C)O)CC[C@@H]12 [25(OH)D, 25-hydroxyvitamin D3]
iNOS levels (relative iNOS gene expression) [1]: responded

CC(=O)S[C@@H]1CC2=CC(=O)CC[C@]2(C)[C@H]2CC[C@@]3(C)[C@@H](CC[C@@]34CCC(=O)O4)[C@H]12 [spironolactone]
lesion area at day 5 [2]: reduce lesion area | lesion size [2]: dose dependent reduction | systemic toxicity [2]: sustained systemic toxicity | inflammatory cells in skin [3]: significant reduction | skin thickness [3]: decrease in thickness | skin thickness by bi-fold caliper measurements [4]: showed efficacy in reducing skin thickness
